Results reported in patent US20210181109A1 (FUJIFILM Corporation, priority 2018, published 2021).

How the values were obtained:
[1] = NAL depletion percent, HPLC-UV detection (281 nm)
Description: (§1) 1) To a 50 mL vessel, 12.6 mg (±0.1 mg) of NAL is weighed; to this, a 25 mL measuring pipet is used to add 20 mL of 100 mmol/L phosphate buffer (pH: 10.2); and the content is gently stirred using a test tube mixture to achieve dissolution (2 mmol/L NAL solution). 2) To a 500 mL vessel, 149.5 mL of this buffer is added using a 50 mL measuring pipet; to this, 0.5 mL of the above-described 2 mmol/L NAL solution is added; and the content is mixed by inversion to achieve 300-fold dilution (6.667 μmol/L).
(§2) The test substance undiluted solution is defined as an “undiluted solution”, and used. Incidentally, this “undiluted solution” may be appropriately diluted to, for example, 1/10, 1/100, or 1/1000, using an appropriate solvent, and the resultant solution may be used.
(§3) Subsequently, the solution having the maximum dissolution concentration is defined as an “undiluted solution”, and tested. Incidentally, this “undiluted solution” may be appropriately diluted to, for example, 1/10, 1/100, or 1/1000, using an appropriate solvent, and the resultant solution may be used.
(§4) The test substance is prepared at 1 mmol/L in any of solvents that are water, acetonitrile, acetone, and a 5 mass % dimethyl sulfoxide (DMSO)/acetonitrile solution and used as a test substance solution. As the solvent, a solvent in which the test substance dissolves at 1 mmol/L is used; when the test substance is soluble in a plurality of solvents, the solvent is selected in the following order of decreasing precedence: water, acetonitrile, acetone, and 5 mass % DMSO/acetonitrile.
(§5) Test substance solutions are prepared on a 96-well plate (U96 PP-0.5 ML NATURAL, Thermo Fisher Scientific Inc. (NUNC)) mainly using a 12-channel pipette, and a reagent is added in accordance with the following formula.
(§6) Nucleophilic reagent (NAC and NAL): 150 μL
(§7) Test substance solution: 50 μL
(§8) The plate is tightly sealed using a plate sealing (Resistant embossed seal, SHIMADZU GLC Ltd.), and stirred using a plate shaker (Titramax 100, Heidolph Instruments GmbH & CO. KG). The plate is subjected to spinning down using a centrifuge, and then to incubation at 25° C., for 24 hours, in a light-shielded state.
(§9) After the incubation for 24 hours, the plate sealing is removed; to each sample, 50 µL of the reaction stopping solution is added to stop the reaction.
(§10) The HPLC measurement conditions for the nucleophilic reagents are as follows.
(§11) From the average values (each, n=3) of peak areas of the post-reaction unreacted NAC or NAL and the blank-test (after performing the reaction step without addition of the test substances) NAC or NAL, the following formula is used to calculate the depletion percent of NAC or NAL.
(§12) NAL depletion percent (% depletion)=[1−(Average value of peak areas of post-reaction unreacted NAL/Average value of peak areas of blank-test (after performing the reaction step without addition of the test substances) NAL)]×100
(§13) The average value of peak areas of post-reaction unreacted NAL is the average value of areas obtained by measuring three times post-reaction unreacted NAL. The average value of peak areas of blank-test (after performing the reaction step without addition of the test substances) NAL is the average value of areas obtained by measuring three times blank-test (after performing the reaction step without addition of the test substances) NAL.
(§14) The reactions were each performed on a 96-well plate, and the number of samples of each case was set to n=3. In addition, as controls, reaction solutions including the solvent alone were prepared. The reaction solutions were prepared so as to have a NAC or NAL concentration of 5 μmon. To the reaction solutions after the lapse of 24 hours, a trifluoroacetic acid (TFA) aqueous solution was added such that the final concentration became 0.5% (v/v) TFA. Subsequently, HPLC was performed for measurements by two detection methods that were light absorption detection using a photodiode array (PDA) detector, and fluorescence detection using a fluorescence detector.

[2] = NAL depletion percent, HPLC-fluorescence detection
Description: as §1, §2, §3, §4, §5, §6, §7, §8, §9, §10, §11, §12, §13, §14

[3] = NAC depletion percent, HPLC-fluorescence detection
Description: as §1, with “11.6” for “12.6”, “NAC” for “NAL”, “8.0);” for “10.2);”, “mixer” for “mixture”, “mmol/L).” for “mmol/L NAL solution).”, “μmon).” for “μmol/L).”
as §2, §3, §4, §5, §6, §7, §8, §9, §10, §11
(§15) NAC depletion percent (% depletion)=[1−(Average value of peak areas of post-reaction unreacted NAC/Average value of peak areas of blank-test (after performing the reaction step without addition of the test substances) NAC)]×100
(§16) The average value of peak areas of the post-reaction unreacted NAC is the average value of areas obtained by measuring three times post-reaction unreacted NAC. The average value of peak areas of blank-test (after performing the reaction step without addition of the test substances) NAC is the average value of areas obtained by measuring three times blank-test (after performing the reaction step without addition of the test substances) NAC.
as §14

[4] = Average score of NAC and NAL depletion and prediction of skin allergenicity, UV method; settings: for Mean Depletion (%) (average score) / determination of skin allergenicity from average score: UV method; for determination of skin allergenicity from average score: criterion […]; for Average score: test substance solution 1 mmol/L
Description: (§17) The average value (Average Score) of NAC and NAL depletion percents is calculated. In the resultant value, the second decimal place is rounded off.
(§18) Average value (Average Score) of NAC and NAL depletion percents=(NAC depletion percent+NAL depletion percent)/2
(§19) The depletion percent of at least one of NAC or NAL or the average score of the depletion percents of NAC and NAL is calculated, and whether or not the test substances are “allergenic substances” or “non-allergenic substances” is determined:
(§20) (1) in a case of performing evaluation based on the average value of the depletion percent of NAC and the depletion percent of NAL,
(§21) In the following Tables, S represents as being an allergenic substance and NS represents as being a non-allergenic substance.

[5] = Average score of NAC and NAL depletion and prediction of skin allergenicity, fluorescence method; settings: for determination of skin allergenicity from average score: criterion […]; for Average score: test substance solution 1 mmol/L
Description: as §17, §18, §19, §20, §21

[6] = NAC depletion percent, HPLC-UV detection (281 nm)
Description: as §1, with “11.6” for “12.6”, “NAC” for “NAL”, “8.0);” for “10.2);”, “mixer” for “mixture”, “mmol/L).” for “mmol/L NAL solution).”, “μmon).” for “μmol/L).”
as §2, §3, §4, §5, §6, §7, §8, §9, §10, §11, §15, §16, §14

[7] = Reference (UV method), non-allergenic substance
[8] = Fluorescence method, non-allergenic substance
[9] = Reference (UV method), skin allergenicity prediction
[10] = Fluorescence method, skin allergenicity prediction
[11] = 1/1 (undiluted solution), UV method
[12] = 1/10 diluted solution, UV method
[13] = 1/1 (undiluted solution), fluorescence method, 25° C. 24 hours
[14] = 1/10 diluted solution, fluorescence method
[15] = 1/1 (undiluted solution), fluorescence method
[16] = single substance, test substance solution 1 mmol/L, Reference (UV method)
[17] = single substance, test substance solution 1 mmol/L, fluorescence method
[18] = single substance, Reference (UV method)
[19] = single substance, fluorescence method

Structure (SMILES)	NAL depletion (%) [1, 7]	NAL depletion (%) [2, 8]	NAC depletion (%) [3, 8]	Prediction result [4, 9]	Prediction result [5, 10]	NAC depletion (%) [6, 7]	NAL depletion (%) [1, 16]	NAL depletion (%) [2, 17]	NAC depletion (%) [3, 17]	Average score [4, 18]	Average score [5, 19]	NAC depletion (%) [6, 16]	further results
COc1ccc(C(C)=O)cc1 [4′-Methoxyacetophenone]	3.3%	0.0%	1.2%	NS (NS represents as being a non-allergenic substance)	NS (NS represents as being a non-allergenic substance)	3.3%	–	–	–	–	–	–	–
O=C(O)c1ccc(O)c(O)c1 [Protocatechuic acid]	–	–	–	–	–	–	–	–	–	–	–	–	NAL depletion (%) [1, 11]: 18.6%; NAL depletion (%) [1, 12]: 11.9%; NAL depletion (%) [2, 13]: 38.3%; NAL depletion (%) [2, 14]: 11.5%; NAC depletion (%) [3, 13]: 58.1%; NAC depletion (%) [3, 14]: 27.3%; Mean Depletion (%) (average score) ([4]; 1/1 (undiluted solution)): 39.7%; determination of skin allergenicity from average score ([4]; 1/1 (undiluted solution)): having skin allergenicity; Mean Depletion (%) (average score) ([4]; 1/10 diluted solution): 21.0%; determination of skin allergenicity from average score ([4]; 1/10 diluted solution): having skin allergenicity; Mean Depletion (%) (average score) [5, 15]: 48.2%; determination of skin allergenicity from average score [5, 15]: having skin allergenicity; Mean Depletion (%) (average score) [5, 14]: 19.4%; determination of skin allergenicity from average score [5, 14]: having skin allergenicity; NAC depletion (%) [6, 11]: 60.8%; NAC depletion (%) [6, 12]: 30.1%
O=c1ccc2ccccc2o1 [Coumarin]	3.9%	0.4%	1.2%	NS (NS represents as being a non-allergenic substance)	NS (NS represents as being a non-allergenic substance)	0.5%	–	–	–	–	–	–	–
O=C(O)c1ccc(O)cc1 [4-Hydroxybenzoic acid]	−1.4%	0.1%	2.9%	NS (NS represents as being a non-allergenic substance)	NS (NS represents as being a non-allergenic substance)	0.0%	–	–	–	–	–	–	–
O=C(O)C(=O)O [Oxalic acid]	–	–	–	–	–	–	3.6%	0.3%	0.0%	1.8%	0.1%	0.0%	–
Nc1ccc(S(=O)(=O)O)cc1 [Sulfanilic acid]	0.4%	0.1%	0.0%	NS (NS represents as being a non-allergenic substance)	NS (NS represents as being a non-allergenic substance)	0.5%	–	–	–	–	–	–	–
CC(C)O [Isopropanol]	2.8%	4.6%	1.1%	NS (NS represents as being a non-allergenic substance)	NS (NS represents as being a non-allergenic substance)	0.1%	–	–	–	–	–	–	–
CCCCCC [Hexane]	–	–	–	NS (NS represents as being a non-allergenic substance)	NS (NS represents as being a non-allergenic substance)	–	–	–	–	–	–	–	NAL depletion (%) [1]: 0.9%; NAL depletion (%) [2]: 0.0%; NAC depletion (%) [3]: 0.0%; NAC depletion (%) [6]: 0.2%
CC(=O)C(C)=O [2,3-Butanedione]	–	–	–	–	–	–	25.5%	17.7%	45.2%	33.4%	31.4%	41.2%	–
C=C(C)C(=O)OCC(C)O (stereo not shown) [2-Hydroxypropyl methacrylate]	2.2%	0.2%	2.0%	NS (NS represents as being a non-allergenic substance)	NS (NS represents as being a non-allergenic substance)	2.4%	–	–	–	–	–	–	–
CCCCBr [1-Bromobutane]	2.4%	0.0%	0.0%	NS (NS represents as being a non-allergenic substance)	NS (NS represents as being a non-allergenic substance)	0.1%	–	–	–	–	–	–	–
CC(C=O)Cc1ccc(C(C)(C)C)cc1 (stereo not shown) [Lilial]	–	–	–	–	–	–	3.9%	0.2%	18.0%	5.4%	9.1%	7.0%	Prediction result [4]: S (key: S represents as being an allergenic substance; NS represents as being a non-allergenic substance); Prediction result [5]: S (key: S represents as being an allergenic substance; NS represents as being a non-allergenic substance)
O=[N+]([O-])c1ccc(Cl)c([N+](=O)[O-])c1 [2,4-Dinitrochlorobenzene]	–	–	–	–	–	–	6.1%	0.0%	91.6%	47.7%	45.8%	89.3%	Prediction result ([4]; single substance, Reference (UV method), criterion average score […]): S (S represents as being an allergenic substance); Prediction result ([5]; single substance, fluorescence method, criterion average score […]): S (S represents as being an allergenic substance)
CC(C)=CCCC(C)=CCCC(C)=CC=O [Farnesal]	–	–	–	–	–	–	8.8%	4.9%	22.4%	13.0%	13.6%	17.2%	Prediction result [4]: S (key: S represents as being an allergenic substance; NS represents as being a non-allergenic substance); Prediction result [5]: S (key: S represents as being an allergenic substance; NS represents as being a non-allergenic substance)
COC(=O)c1ccccc1O [Methyl salicylate]	0.4%	0.0%	0.3%	NS (NS represents as being a non-allergenic substance)	NS (NS represents as being a non-allergenic substance)	0.0%	–	–	–	–	–	–	–
